{"source": "patent US5190783A", "about": "“Primary amide esters as low calorie fat mimetics” (Nabisco, Inc., priority 1991, dated 1993)", "assay": "caloric availability by in vivo animal feeding study (body weight gain)", "parameters": "species or system Sprague-Dawley rats", "conditions": "rats, diet of 50% fort and 21% test compound, 14 days", "from_the_text": "This example illustrates how the novel fat mimetics of this invention are screened for caloric availability by a carefully controlled in vivo animal feeding study.\nAn experimental relationship between total calories ingested and animal body weight gain is established by monitoring the body weight gain associated with consumption of a nutritionally balanced diet containing varying concentrations of a reference substance such as corn oil which has a known caloric availability. Correlations between total calories ingested and body weight gain are excellent (r=0.99).\nCaloric availability of a test material is evaluated by substituting a specific weight of the test material for the reference substance and observing the body weight gain. The gain in body weight is equated to a total number of calories using the correlation previously established for the reference data. The estimated number of calories ingested are divided by the weight of test material to give the apparent calories per gram for the test material. Generally speaking, in these bioavailability studies, the degree of perianal pelt soiling correlates with reduced bioavailability.\nThe test animals are six-week-old male Sprague-Dawley rats obtained from the Portage, Michigan facility of the Charles River Laboratories, Inc. After acclimation for 15 days, the test duration is 14 days. […]"}
{"smiles": "CCCCCCCC/C=C\\CCCCCCCC(=O)NCC(COC(=O)CCCCCCC/C=C\\CCCCCCCC)OC(=O)CCCCCCC/C=C\\CCCCCCCC", "note": "(stereo not shown) [Example 2, 2,3-s(oleyoyloxy)propyl oleamide]", "values": [{"measurement": "calories upon being metabolized (apparent calories per gram)", "value": "about 3.3 kcal/gram"}]}
